Laboratory results published in patent US12077503B2, “Substituted cyclic amides and their use as herbicides” (FMC CORPORATION, priority 2015, dated 2024).

What was measured:
Assay in all cases: Test C postemergence
Type in all cases: in vivo
Conditions in all cases: scale 0 to 100, 0 no effect, 100 complete control
[1] = tested on: Galium (catchweed bedstraw, Galium aparine)
Source text: (§1) Seeds of plant species selected from blackgrass (Alopecurus myosuroides), ryegrass, Italian (Italian ryegrass, Lolium multiflorum), wheat (winter wheat, Triticum aestivum), Galium (catchweed bedstraw, Galium aparine), corn (Zea mays), crabgrass, large (large crabgrass, Digitaria sanguinalis), foxtail, giant (giant foxtail, Setaria faberii), johnsongrass (Sorghum halepense), lambsquarters (Chenopodium album), morningglory (Ipomoea coccinea), nutsedge, yellow (yellow nutsedge, Cyperus esculentus), pigweed (Amaranthus retroflexus), ragweed (common ragweed, Ambrosia elatior), soybean (Glycine max), barnyardgrass (Echinochloa crus-galli), oilseed rape (Brassica napus), waterhemp (common waterhemp, Amaranthus rudis) and velvetleaf (Abutilon theophrasti) were planted into a blend of loam soil and sand and treated preemergence with test chemicals formulated in a non-phytotoxic solvent mixture which included a surfactant.
(§2) At the same time, plants selected from these crop and weed species and also Kochia (Kochia scoparia), oat, wild (wild oat, Avena fatua), and chickweed (common chickweed, Stellaria media) were planted in pots containing Sunshine Redi-Earth® planting medium comprising spaghnum peat moss, vermiculite, starter nutrients and dolomitic limestone and treated with postemergence applications of test chemicals formulated in the same manner. Plants ranged in height from 2 to 18 cm (1- to 4-leaf stage) for postemergence treatments. Treated plants and controls were maintained in a greenhouse for 13 to 15 d, after which time all species were compared to controls and visually evaluated. Plant response ratings, summarized in Table C, are based on a scale of 0 to 100 where 0 is no effect and 100 is complete control. A dash (-) response means no test result.

[2] = tested on: foxtail, giant (giant foxtail, Setaria faberii)
Source text: as §1, §2

[3] = tested on: ryegrass, Italian (Italian ryegrass, Lolium multiflorum)
Source text: as §1, §2

## O=C1NCC(c2ccc3c(c2)OC(F)(F)O3)C1C(=O)Nc1cccc(F)c1F (stereo not drawn) [Compound 635]
[1]; 31 g ai/ha
  Plant response rating, Galium: 50
[1]; 62 g ai/ha
  Plant response rating, Galium: 50
[1]; 125 g ai/ha
  Plant response rating, Galium: 60
[1]; 250 g ai/ha
  Plant response rating, Galium: 55
[2]; 31 g ai/ha
  Plant response rating, Foxtail, Giant: 15
[2]; 62 g ai/ha
  Plant response rating, Foxtail, Giant: 30
[2]; 125 g ai/ha
  Plant response rating, Foxtail, Giant: 50
[2]; 250 g ai/ha
  Plant response rating, Foxtail, Giant: 60
[3]; 31 g ai/ha
  Plant response rating, Ryegrass, Italian: 0
[3]; 62 g ai/ha
  Plant response rating, Ryegrass, Italian: 0
[3]; 125 g ai/ha
  Plant response rating, Ryegrass, Italian: 15
[3]; 250 g ai/ha
  Plant response rating, Ryegrass, Italian: 20

## CN1CC(c2ccc(F)c(F)c2)C(C(=O)Nc2ccccc2C(F)(F)F)C1=O (stereo not drawn) [Compound 641]
[1]; 31 g ai/ha
  Plant response rating, Galium: 40
[1]; 62 g ai/ha
  Plant response rating, Galium: 60
[1]; 125 g ai/ha
  Plant response rating, Galium: 60
[1]; 250 g ai/ha
  Plant response rating, Galium: 65
[2]; 31 g ai/ha
  Plant response rating, Foxtail, Giant: 0
[2]; 62 g ai/ha
  Plant response rating, Foxtail, Giant: 10
[2]; 125 g ai/ha
  Plant response rating, Foxtail, Giant: 65
[2]; 250 g ai/ha
  Plant response rating, Foxtail, Giant: 80
[3]; 31 g ai/ha
  Plant response rating, Ryegrass, Italian: 0
[3]; 62 g ai/ha
  Plant response rating, Ryegrass, Italian: 0
[3]; 125 g ai/ha
  Plant response rating, Ryegrass, Italian: 10
[3]; 250 g ai/ha
  Plant response rating, Ryegrass, Italian: 10
